# Measured values: patent US8703796B2, “3H-imidazo [4, 5-B] pyridine-6-carboxamides as anti-inflammatory agents” (Boehringer Ingelheim International GmbH, priority 2008, dated 2014)
# Biological target: T1, recombinant human mPGES-1 (Homo sapiens, UniProt O14684)
# T1 construct: made in house; host or cells: Rosetta E. coli (microsomal/membrane fraction)
# T1 sequence (O14684 1-152): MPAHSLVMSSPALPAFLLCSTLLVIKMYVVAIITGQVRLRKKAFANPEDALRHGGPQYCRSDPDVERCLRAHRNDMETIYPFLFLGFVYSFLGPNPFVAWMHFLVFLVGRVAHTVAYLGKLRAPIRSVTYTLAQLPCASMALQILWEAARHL
# Experiment: mPGES-1 inhibition, HTRF detection of PGE2
# Type: biochemical
# Method in brief: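 Microsomes from E. coli expressing recombinant human mPGES-1 in 0.1 M KPi pH 7.4 with 2.5 mM GSH were preincubated with inhibitor 25 min at room temperature. PGH2 was then added, and the reaction was stopped after 1 min with acidified FeCl2. PGE2 was quantified by HTRF (665/620 nm ratio) against a synthetic PGE2 standard curve.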
row,Structure (SMILES),inhibition at 10 µM [%]
1,"O=C(Nc1cc(C(F)(F)F)ccn1)c1cc2nc(Nc3c(Cl)cc(F)cc3Cl)[nH]c2nc1OCC(F)(F)F [Example 819, 2-(2,6-Dichloro-4-fluoro-phenylamino)-5-(2,2,2-trifluoro-ethoxy)-N-(4-trifluoromethyl-pyridin-2-yl)-3H-imidazo[4,5-b]pyridine-6-carboxamide]",96
2,"O=C(Nc1ccc(Br)cc1)c1cc2nc(Nc3c(Cl)cc(F)cc3Cl)[nH]c2nc1OCC(F)(F)F [Example 820, 2-(2,6-Dichloro-4-fluoro-phenylamino)-5-(2,2,2-trifluoro-ethoxy)-N-(4-bromo-phenyl)-3H-imidazo[4,5-b]pyridine-6-carboxamide]",99
3,"O=C(Nc1cc(C(F)(F)F)ccn1)c1cc2nc(Nc3c(Cl)cc(F)cc3Cl)[nH]c2nc1OCC(F)F [Example 821, 2-(2,6-Dichloro-4-fluoro-phenylamino)-5-(2,2-difluoro-ethoxy)-N-(4-trifluoromethyl-pyridin-2-yl)-3H-imidazo[4,5-b]pyridine-6-carboxamide]",90
4,"O=C(Nc1ccc(Br)cc1)c1cc2nc(Nc3c(Cl)cc(F)cc3Cl)[nH]c2nc1OCC(F)F [Example 822, 2-(2,6-Dichloro-4-fluoro-phenylamino)-5-(2,2-difluoro-ethoxy)-N-(4-bromo-phenyl)-3H-imidazo[4,5-b]pyridine-6-carboxamide]",100
5,"O=C(N[C@H]1CC[C@H](C(F)(F)F)CC1)c1cc2nc(Nc3c(Cl)cc(F)cc3Cl)[nH]c2nc1OCC(F)F [Example 823, 2-(2,6-Dichloro-4-fluoro-phenylamino)-5-(2,2-difluoro-ethoxy)-N-(trans-4-trifluoromethyl-cyclohexyl)-3H-imidazo[4,5-b]pyridine-6-carboxamide]",91
6,"O=C(NCc1ccccc1C(F)(F)F)c1cc2nc(Nc3c(Cl)cc(F)cc3Cl)[nH]c2nc1OCC(F)F [Example 824, 2-(2,6-Dichloro-4-fluoro-phenylamino)-5-(2,2-difluoro-ethoxy)-N-(2-trifluoromethyl-benzyl)-3H-imidazo[4,5-b]pyridine-6-carboxamide]",100
7,"O=C(NCC(F)(F)C(F)(F)C(F)(F)C(F)(F)F)c1cc2nc(Nc3c(Cl)cc(F)cc3Cl)[nH]c2nc1OCC(F)F [Example 825, 2-(2,6-Dichloro-4-fluoro-phenylamino)-5-(2,2-difluoro-ethoxy)-N-(2,2,3,3,4,4,5,5,5-nonafluoropentyl)-3H-imidazo[4,5-b]pyridine-6-carboxamide]",98
8,"O=C(NCc1ncccc1C(F)(F)F)c1cc2nc(Nc3c(Cl)cc(F)cc3Cl)[nH]c2nc1OCC(F)F [Example 826, 2-(2,6-Dichloro-4-fluoro-phenylamino)-5-(2,2-difluoro-ethoxy)-N-((3-trifluoromethyl-pyridin-2-yl)-methyl)-3H-imidazo[4,5-b]pyridine-6-carboxamide]",100
9,"O=C(N[C@H]1CC[C@H](C(F)(F)F)CC1)c1cc2nc(Nc3c(Cl)cc(F)cc3Cl)[nH]c2nc1OCC(F)(F)F [Example 827, 2-(2,6-Dichloro-4-fluoro-phenylamino)-5-(2,2,2-trifluoro-ethoxy)-N-(trans-4-trifluoromethyl-cyclohexyl)-3H-imidazo[4,5-b]pyridine-6-carboxamide]",100
10,"O=C(NCc1ccccc1C(F)(F)F)c1cc2nc(Nc3c(Cl)cc(F)cc3Cl)[nH]c2nc1OCC(F)(F)F [Example 828, 2-(2,6-Dichloro-4-fluoro-phenylamino)-5-(2,2,2-trifluoro-ethoxy)-N-(2-trifluoromethyl-benzyl)-3H-imidazo[4,5-b]pyridine-6-carboxamide]",98
11,"O=C(NCC(F)(F)C(F)(F)C(F)(F)C(F)(F)F)c1cc2nc(Nc3c(Cl)cc(F)cc3Cl)[nH]c2nc1OCC(F)(F)F [Example 829, 2-(2,6-Dichloro-4-fluoro-phenylamino)-5-(2,2,2-trifluoro-ethoxy)-N-(2,2,3,3,4,4,5,5,5-nonafluoropentyl)-3H-imidazo[4,5-b]pyridine-6-carboxamide]",100
12,"O=C(NCc1ncccc1C(F)(F)F)c1cc2nc(Nc3c(Cl)cc(F)cc3Cl)[nH]c2nc1OCC(F)(F)F [Example 830, 2-(2,6-Dichloro-4-fluoro-phenylamino)-5-(2,2,2-trifluoro-ethoxy)-N-((3-trifluoromethyl-pyridin-2-yl)-methyl)-3H-imidazo[4,5-b]pyridine-6-carboxamide]",98
13,"Cn1c(Nc2c(Cl)cncc2Cl)nc2cc(C(=O)Nc3cc(C(F)(F)F)ccn3)c(OCCF)nc21 [Example 831, 2-(3,5-Dichloro-pyridin-4-ylamino)-5-(2-fluoro-ethoxy)-N-(4-trifluoromethyl-pyridin-2-yl)-3-methyl-3H-imidazo[4,5-b]pyridine-6-carboxamide]",100
14,"Cn1c(Nc2c(Cl)cncc2Cl)nc2cc(C(=O)Nc3ccc(Br)cc3)c(OCCF)nc21 [Example 832, 2-(3,5-Dichloro-pyridin-4-ylamino)-5-(2-fluoro-ethoxy)-N-(4-bromo-phenyl)-3-methyl-3H-imidazo[4,5-b]pyridine-6-carboxamide]",100
15,"Cn1c(Nc2c(Cl)cncc2Cl)nc2cc(C(=O)N[C@H]3CC[C@H](C(F)(F)F)CC3)c(OCCF)nc21 [Example 833, 2-(3,5-Dichloro-pyridin-4-ylamino)-5-(2-fluoro-ethoxy)-N-(trans-4-trifluoromethyl-cyclohexyl)-3-methyl-3H-imidazo[4,5-b]pyridine-6-carboxamide]",100
16,"Cn1c(Nc2c(Cl)cncc2Cl)nc2cc(C(=O)NCC(F)(F)C(F)(F)C(F)(F)C(F)(F)F)c(OCCF)nc21 [Example 834, 2-(3,5-Dichloro-pyridin-4-ylamino)-5-(2-fluoro-ethoxy)-N-(2,2,3,3,4,4,5,5,5-nonafluoropentyl)-3-methyl-3H-imidazo[4,5-b]pyridine-6-carboxamide]",99
17,"Cn1c(Nc2c(Cl)cncc2Cl)nc2cc(C(=O)NCc3ncccc3C(F)(F)F)c(OCCF)nc21 [Example 835, 2-(3,5-Dichloro-pyridin-4-ylamino)-5-(2-fluoro-ethoxy)-N-((3-trifluoromethyl-pyridin-2-yl)-methyl)-3-methyl-3H-imidazo[4,5-b]pyridine-6-carboxamide]",95
18,"Cn1c(Nc2c(Cl)cncc2Cl)nc2cc(C(=O)Nc3cc(C(F)(F)F)ccn3)c(OCC(F)F)nc21 [Example 836, 2-(3,5-Dichloro-pyridin-4-ylamino)-5-(2,2-difluoro-ethoxy)-N-(4-trifluoromethyl-pyridin-2-yl)-3-methyl-3H-imidazo[4,5-b]pyridine-6-carboxamide]",100
19,"Cn1c(Nc2c(Cl)cncc2Cl)nc2cc(C(=O)Nc3ccc(Br)cc3)c(OCC(F)F)nc21 [Example 837, 2-(3,5-Dichloro-pyridin-4-ylamino)-5-(2,2-difluoro-ethoxy)-N-(4-bromo-phenyl)-3-methyl-3H-imidazo[4,5-b]pyridine-6-carboxamide]",96
20,"Cn1c(Nc2c(Cl)cncc2Cl)nc2cc(C(=O)N[C@H]3CC[C@H](C(F)(F)F)CC3)c(OCC(F)F)nc21 [Example 838, 2-(3,5-Dichloro-pyridin-4-ylamino)-5-(2,2-difluoro-ethoxy)-N-(trans-4-trifluoromethyl-cyclohexyl)-3-methyl-3H-imidazo[4,5-b]pyridine-6-carboxamide]",94
21,"Cn1c(Nc2c(Cl)cncc2Cl)nc2cc(C(=O)NCc3ccccc3C(F)(F)F)c(OCC(F)F)nc21 [Example 839, 2-(3,5-Dichloro-pyridin-4-ylamino)-5-(2,2-difluoro-ethoxy)-N-(2-trifluoromethyl-benzyl)-3-methyl-3H-imidazo[4,5-b]pyridine-6-carboxamide]",98
22,"Cn1c(Nc2c(Cl)cncc2Cl)nc2cc(C(=O)NCC(F)(F)C(F)(F)C(F)(F)C(F)(F)F)c(OCC(F)F)nc21 [Example 840, 2-(3,5-Dichloro-pyridin-4-ylamino)-5-(2,2-difluoro-ethoxy)-N-(2,2,3,3,4,4,5,5,5-nonafluoropentyl)-3-methyl-3H-imidazo[4,5-b]pyridine-6-carboxamide]",99
23,"Cn1c(Nc2c(Cl)cncc2Cl)nc2cc(C(=O)NCc3ncccc3C(F)(F)F)c(OCC(F)F)nc21 [Example 841, 2-(3,5-Dichloro-pyridin-4-ylamino)-5-(2,2-difluoro-ethoxy)-N-((3-trifluoromethyl-pyridin-2-yl)-methyl)-3-methyl-3H-imidazo[4,5-b]pyridine-6-carboxamide]",99
24,"CCOc1nc2[nH]c(Nc3c(Cl)cncc3Cl)nc2cc1C(=O)N[C@H]1CC[C@H](C(F)(F)F)CC1 [Example 842, 2-(3,5-Dichloro-pyridin-4-ylamino)-5-ethoxy-N-(trans-4-trifluoromethyl-cyclohexyl)-3H-imidazo[4,5-b]pyridine-6-carboxamide]",92
25,"CCOc1nc2[nH]c(Nc3c(Cl)cncc3Cl)nc2cc1C(=O)NCc1ncccc1C(F)(F)F [Example 843, 2-(3,5-Dichloro-pyridin-4-ylamino)-5-ethoxy-N-((3-trifluoromethyl-pyridin-2-yl)-methyl)-3H-imidazo[4,5-b]pyridine-6-carboxamide]",99
26,"CCOc1nc2[nH]c(Nc3c(Cl)cncc3Cl)nc2cc1C(=O)NCC(F)(F)C(F)(F)C(F)(F)C(F)(F)F [Example 844, 2-(3,5-Dichloro-pyridin-4-ylamino)-5-ethoxy-N-(2,2,3,3,4,4,5,5,5-nonafluoro-pentyl)-3H-imidazo[4,5-b]pyridine-6-carboxamide]",100
27,"CCOc1nc2[nH]c(Nc3c(Cl)cncc3Cl)nc2cc1C(=O)Nc1cc(C(F)(F)F)ccn1 [Example 845, 2-(3,5-Dichloro-pyridin-4-ylamino)-5-ethoxy-N-(4-trifluoromethyl-pyridin-2-yl)-3H-imidazo[4,5-b]pyridine-6-carboxamide]",99
